Columns and labels:
Assay in all cases: Ambit kinase profiling, competition binding
[1] = molecular target: T1, ABL1(F317L) (Homo sapiens, UniProt P00519, F317L); conditions: compound concentration 10 uM, read-out: Percent Competition
T1 construct: purchased Ambit Biosciences (KINOMEscan)
Excerpt: (§1) Supplement pone.0044653.s004.xls, sheet "Compound 122" | column: Percent Competition

[2] = molecular target: T2, ABL2 (Homo sapiens, UniProt P42684); conditions: compound concentration 10 uM, read-out: Percent Competition
T2 construct: purchased Ambit Biosciences (KINOMEscan)
Excerpt: as §1

[3] = molecular target: T3, ACVR2A (Homo sapiens, UniProt P27037); conditions: compound concentration 10 uM, read-out: Percent Competition
T3 construct: purchased Ambit Biosciences (KINOMEscan)
Excerpt: as §1

[4] = molecular target: T4, ALK (Homo sapiens, UniProt Q9UM73); conditions: compound concentration 10 uM, read-out: Percent Competition
T4 construct: purchased Ambit Biosciences (KINOMEscan)
T4 sequence (Q9UM73 19-1620): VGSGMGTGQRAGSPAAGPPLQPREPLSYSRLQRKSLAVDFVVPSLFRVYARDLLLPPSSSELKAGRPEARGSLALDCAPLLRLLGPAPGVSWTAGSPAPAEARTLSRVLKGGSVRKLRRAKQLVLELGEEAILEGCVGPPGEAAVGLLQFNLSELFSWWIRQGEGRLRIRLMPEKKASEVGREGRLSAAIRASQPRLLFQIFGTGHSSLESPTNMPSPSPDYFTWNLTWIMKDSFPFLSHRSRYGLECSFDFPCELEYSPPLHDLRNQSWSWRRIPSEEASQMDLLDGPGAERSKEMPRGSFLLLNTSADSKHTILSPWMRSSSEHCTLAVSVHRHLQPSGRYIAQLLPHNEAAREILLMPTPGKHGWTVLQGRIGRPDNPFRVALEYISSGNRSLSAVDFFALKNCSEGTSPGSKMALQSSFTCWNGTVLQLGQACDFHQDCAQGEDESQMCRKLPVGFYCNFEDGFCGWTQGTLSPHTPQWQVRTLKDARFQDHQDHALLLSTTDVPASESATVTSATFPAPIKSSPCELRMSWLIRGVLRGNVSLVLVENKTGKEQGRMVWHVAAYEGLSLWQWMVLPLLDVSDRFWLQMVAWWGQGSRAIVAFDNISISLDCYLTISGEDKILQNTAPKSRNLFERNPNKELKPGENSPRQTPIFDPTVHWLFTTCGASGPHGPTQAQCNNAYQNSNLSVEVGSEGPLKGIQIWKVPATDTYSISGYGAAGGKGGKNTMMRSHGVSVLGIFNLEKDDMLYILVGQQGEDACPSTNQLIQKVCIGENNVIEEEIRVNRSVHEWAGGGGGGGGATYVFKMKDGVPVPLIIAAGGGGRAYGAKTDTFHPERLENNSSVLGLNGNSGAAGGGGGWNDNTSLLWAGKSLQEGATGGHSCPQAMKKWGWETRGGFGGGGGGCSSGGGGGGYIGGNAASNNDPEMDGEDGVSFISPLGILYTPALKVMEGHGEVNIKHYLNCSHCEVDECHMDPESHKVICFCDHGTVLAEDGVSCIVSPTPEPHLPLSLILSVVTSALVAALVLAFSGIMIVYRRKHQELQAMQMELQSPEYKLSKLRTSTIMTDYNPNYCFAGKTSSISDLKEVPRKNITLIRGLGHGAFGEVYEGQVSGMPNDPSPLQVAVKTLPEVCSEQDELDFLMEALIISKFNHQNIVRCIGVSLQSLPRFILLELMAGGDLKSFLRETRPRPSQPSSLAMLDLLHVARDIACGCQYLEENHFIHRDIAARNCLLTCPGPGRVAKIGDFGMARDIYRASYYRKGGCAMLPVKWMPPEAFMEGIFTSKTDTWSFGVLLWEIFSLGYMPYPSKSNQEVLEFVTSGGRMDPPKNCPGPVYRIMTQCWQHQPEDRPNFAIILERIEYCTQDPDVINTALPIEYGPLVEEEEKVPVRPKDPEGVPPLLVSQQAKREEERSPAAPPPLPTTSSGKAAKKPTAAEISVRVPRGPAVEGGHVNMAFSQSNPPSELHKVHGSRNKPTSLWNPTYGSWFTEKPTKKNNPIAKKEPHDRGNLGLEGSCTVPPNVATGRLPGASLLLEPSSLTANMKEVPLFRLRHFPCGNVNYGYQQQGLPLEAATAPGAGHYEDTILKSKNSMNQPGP
Excerpt: as §1

[5] = molecular target: T5, BMPR2 (Homo sapiens, UniProt Q13873); conditions: compound concentration 10 uM
T5 construct: purchased Ambit Biosciences (KINOMEscan)
Excerpt: as §1

[6] = molecular target: T6, BMX (Homo sapiens, UniProt P51813); conditions: compound concentration 10 uM, read-out: Percent Competition
T6 construct: purchased Ambit Biosciences (KINOMEscan)
Excerpt: as §1

[7] = molecular target: T7, BRK (Homo sapiens, UniProt Q13882); conditions: compound concentration 10 uM, read-out: Percent Competition
T7 construct: purchased Ambit Biosciences (KINOMEscan)
Excerpt: as §1

[8] = molecular target: T8, BRSK1 (Homo sapiens, UniProt Q8TDC3); conditions: compound concentration 10 uM, read-out: Percent Competition
T8 construct: purchased Ambit Biosciences (KINOMEscan)
Excerpt: as §1

[9] = molecular target: T9, BRSK2 (Homo sapiens, UniProt Q8IWQ3); conditions: compound concentration 10 uM, read-out: Percent Competition
T9 construct: purchased Ambit Biosciences (KINOMEscan)
Excerpt: as §1

[10] = molecular target: T10, CAMKK1 (Homo sapiens, UniProt Q8N5S9); conditions: compound concentration 10 uM, read-out: Percent Competition
T10 construct: purchased Ambit Biosciences (KINOMEscan)
Excerpt: as §1

[11] = molecular target: T11, CDK11 (Homo sapiens, UniProt Q9BWU1); conditions: compound concentration 10 uM
T11 construct: purchased Ambit Biosciences (KINOMEscan)
Excerpt: as §1

[12] = molecular target: T12, CHEK2 (Homo sapiens, UniProt O96017); conditions: compound concentration 10 uM, read-out: Percent Competition
T12 construct: purchased Ambit Biosciences (KINOMEscan)
Excerpt: as §1

[13] = molecular target: T13, DAPK2 (Homo sapiens, UniProt Q9UIK4); conditions: compound concentration 10 uM, read-out: Percent Competition
T13 construct: purchased Ambit Biosciences (KINOMEscan)
Excerpt: as §1

[14] = molecular target: T14, EPHB2 (Homo sapiens, UniProt P29323); conditions: compound concentration 10 uM
T14 construct: purchased Ambit Biosciences (KINOMEscan)
Excerpt: as §1

[15] = molecular target: T15, FER (Homo sapiens, UniProt P16591); conditions: compound concentration 10 uM, read-out: Percent Competition
T15 construct: purchased Ambit Biosciences (KINOMEscan)
Excerpt: as §1

[16] = molecular target: T16, IGF1R (Homo sapiens, UniProt P08069); conditions: compound concentration 10 uM, read-out: Percent Competition
T16 construct: purchased Ambit Biosciences (KINOMEscan)
Excerpt: as §1

[17] = molecular target: T17, IKK-alpha (Homo sapiens, UniProt O15111); conditions: compound concentration 10 uM, read-out: Percent Competition
T17 construct: purchased Ambit Biosciences (KINOMEscan)
Excerpt: as §1

[18] = molecular target: T18, IKK-epsilon (Homo sapiens, UniProt Q14164); conditions: compound concentration 10 uM, read-out: Percent Competition
T18 construct: purchased Ambit Biosciences (KINOMEscan)
Excerpt: as §1

[19] = molecular target: T19, INSR (Homo sapiens, UniProt P06213); conditions: compound concentration 10 uM, read-out: Percent Competition
T19 construct: purchased Ambit Biosciences (KINOMEscan)
Excerpt: as §1

[20] = molecular target: T20, JAK2(JH1domain-catalytic) (Homo sapiens, UniProt O60674); conditions: compound concentration 10 uM
T20 construct: JAK2(JH1domain-catalytic); purchased Ambit Biosciences (KINOMEscan)
T20 sequence (O60674 810-1132 limits assumed): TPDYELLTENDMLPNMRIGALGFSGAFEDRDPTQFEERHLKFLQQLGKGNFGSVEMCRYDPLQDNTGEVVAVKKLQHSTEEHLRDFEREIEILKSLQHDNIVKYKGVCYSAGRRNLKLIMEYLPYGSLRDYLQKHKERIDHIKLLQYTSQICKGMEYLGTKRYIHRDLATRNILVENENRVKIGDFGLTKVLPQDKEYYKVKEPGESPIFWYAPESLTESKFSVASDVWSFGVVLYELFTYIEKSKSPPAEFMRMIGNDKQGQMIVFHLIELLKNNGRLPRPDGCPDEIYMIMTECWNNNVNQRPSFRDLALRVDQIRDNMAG
Excerpt: as §1

[21] = molecular target: T21, KIT (Homo sapiens, UniProt P10721); conditions: compound concentration 10 uM, read-out: Percent Competition
T21 construct: purchased Ambit Biosciences (KINOMEscan)
T21 sequence (P10721 26-976): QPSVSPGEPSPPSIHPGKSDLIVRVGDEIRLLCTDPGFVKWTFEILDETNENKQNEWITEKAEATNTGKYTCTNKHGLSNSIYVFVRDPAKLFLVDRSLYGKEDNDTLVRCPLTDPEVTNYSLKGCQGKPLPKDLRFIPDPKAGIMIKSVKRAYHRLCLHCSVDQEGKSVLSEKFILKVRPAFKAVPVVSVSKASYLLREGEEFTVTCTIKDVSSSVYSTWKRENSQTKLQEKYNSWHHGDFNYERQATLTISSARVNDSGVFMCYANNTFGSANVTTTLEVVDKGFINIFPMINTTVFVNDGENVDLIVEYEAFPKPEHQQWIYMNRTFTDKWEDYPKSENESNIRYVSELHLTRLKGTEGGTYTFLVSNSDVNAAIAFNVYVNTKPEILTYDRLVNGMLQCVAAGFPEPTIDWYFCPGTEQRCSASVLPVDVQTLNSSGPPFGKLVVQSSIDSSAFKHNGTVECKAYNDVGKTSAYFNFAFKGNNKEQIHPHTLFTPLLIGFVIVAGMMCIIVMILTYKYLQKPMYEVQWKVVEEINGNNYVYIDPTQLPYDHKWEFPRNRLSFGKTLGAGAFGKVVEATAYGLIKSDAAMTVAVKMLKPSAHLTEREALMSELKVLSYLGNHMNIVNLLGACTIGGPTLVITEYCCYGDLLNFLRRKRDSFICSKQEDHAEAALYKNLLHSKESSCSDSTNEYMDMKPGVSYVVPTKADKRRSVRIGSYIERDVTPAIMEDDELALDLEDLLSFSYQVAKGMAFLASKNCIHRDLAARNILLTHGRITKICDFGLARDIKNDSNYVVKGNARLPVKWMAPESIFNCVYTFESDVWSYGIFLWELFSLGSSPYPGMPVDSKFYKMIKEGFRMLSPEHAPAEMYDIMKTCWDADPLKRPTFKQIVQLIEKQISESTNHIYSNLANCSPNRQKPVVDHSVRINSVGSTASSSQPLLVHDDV
Excerpt: as §1

[22] = molecular target: T22, LKB1 (Homo sapiens, UniProt Q15831); conditions: compound concentration 10 uM, read-out: Percent Competition
T22 construct: purchased Ambit Biosciences (KINOMEscan)
Excerpt: as §1

[23] = molecular target: T23, MAPKAPK2 (Homo sapiens, UniProt P49137); conditions: compound concentration 10 uM, read-out: Percent Competition
T23 construct: purchased Ambit Biosciences (KINOMEscan)
T23 sequence (P49137 whole entry): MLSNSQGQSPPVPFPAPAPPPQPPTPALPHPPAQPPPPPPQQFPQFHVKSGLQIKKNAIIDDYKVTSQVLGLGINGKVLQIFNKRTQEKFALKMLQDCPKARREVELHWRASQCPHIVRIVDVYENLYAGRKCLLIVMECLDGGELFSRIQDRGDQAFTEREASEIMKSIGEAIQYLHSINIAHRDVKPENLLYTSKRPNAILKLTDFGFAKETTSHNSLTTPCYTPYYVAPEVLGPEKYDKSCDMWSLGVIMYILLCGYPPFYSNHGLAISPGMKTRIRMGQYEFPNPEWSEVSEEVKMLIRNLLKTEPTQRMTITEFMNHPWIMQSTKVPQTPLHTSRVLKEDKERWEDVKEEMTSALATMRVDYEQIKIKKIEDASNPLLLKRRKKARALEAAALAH
Excerpt: as §1

[24] = molecular target: T24, MAPKAPK5 (Homo sapiens, UniProt Q8IW41); conditions: compound concentration 10 uM, read-out: Percent Competition
T24 construct: purchased Ambit Biosciences (KINOMEscan)
Excerpt: as §1

[25] = molecular target: T25, MELK (Homo sapiens, UniProt Q14680); conditions: compound concentration 10 uM, read-out: Percent Competition
T25 construct: purchased Ambit Biosciences (KINOMEscan)
Excerpt: as §1

[26] = molecular target: T26, MLK2 (Homo sapiens, UniProt Q02779); conditions: compound concentration 10 uM, read-out: Percent Competition
T26 construct: purchased Ambit Biosciences (KINOMEscan)
Excerpt: as §1

[27] = molecular target: T27, MLK3 (Homo sapiens, UniProt Q16584); conditions: compound concentration 10 uM
T27 construct: purchased Ambit Biosciences (KINOMEscan)
Excerpt: as §1

[28] = molecular target: T28, MST1R (Homo sapiens, UniProt Q04912); conditions: compound concentration 10 uM, read-out: Percent Competition
T28 construct: purchased Ambit Biosciences (KINOMEscan)
Excerpt: as §1

[29] = molecular target: T29, MYO3A (Homo sapiens, UniProt Q8NEV4); conditions: compound concentration 10 uM, read-out: Percent Competition
T29 construct: purchased Ambit Biosciences (KINOMEscan)
Excerpt: as §1

[30] = molecular target: T30, NEK1 (Homo sapiens, UniProt Q96PY6); conditions: compound concentration 10 uM, read-out: Percent Competition
T30 construct: purchased Ambit Biosciences (KINOMEscan)
Excerpt: as §1

[31] = molecular target: T31, PDGFRA (Homo sapiens, UniProt P16234); conditions: compound concentration 10 uM, read-out: Percent Competition
T31 construct: purchased Ambit Biosciences (KINOMEscan)
Excerpt: as §1

[32] = molecular target: T32, PIK3C2B (Homo sapiens, UniProt O00750); conditions: compound concentration 10 uM, read-out: Percent Competition
T32 construct: purchased Ambit Biosciences (KINOMEscan)
T32 sequence (O00750 whole entry): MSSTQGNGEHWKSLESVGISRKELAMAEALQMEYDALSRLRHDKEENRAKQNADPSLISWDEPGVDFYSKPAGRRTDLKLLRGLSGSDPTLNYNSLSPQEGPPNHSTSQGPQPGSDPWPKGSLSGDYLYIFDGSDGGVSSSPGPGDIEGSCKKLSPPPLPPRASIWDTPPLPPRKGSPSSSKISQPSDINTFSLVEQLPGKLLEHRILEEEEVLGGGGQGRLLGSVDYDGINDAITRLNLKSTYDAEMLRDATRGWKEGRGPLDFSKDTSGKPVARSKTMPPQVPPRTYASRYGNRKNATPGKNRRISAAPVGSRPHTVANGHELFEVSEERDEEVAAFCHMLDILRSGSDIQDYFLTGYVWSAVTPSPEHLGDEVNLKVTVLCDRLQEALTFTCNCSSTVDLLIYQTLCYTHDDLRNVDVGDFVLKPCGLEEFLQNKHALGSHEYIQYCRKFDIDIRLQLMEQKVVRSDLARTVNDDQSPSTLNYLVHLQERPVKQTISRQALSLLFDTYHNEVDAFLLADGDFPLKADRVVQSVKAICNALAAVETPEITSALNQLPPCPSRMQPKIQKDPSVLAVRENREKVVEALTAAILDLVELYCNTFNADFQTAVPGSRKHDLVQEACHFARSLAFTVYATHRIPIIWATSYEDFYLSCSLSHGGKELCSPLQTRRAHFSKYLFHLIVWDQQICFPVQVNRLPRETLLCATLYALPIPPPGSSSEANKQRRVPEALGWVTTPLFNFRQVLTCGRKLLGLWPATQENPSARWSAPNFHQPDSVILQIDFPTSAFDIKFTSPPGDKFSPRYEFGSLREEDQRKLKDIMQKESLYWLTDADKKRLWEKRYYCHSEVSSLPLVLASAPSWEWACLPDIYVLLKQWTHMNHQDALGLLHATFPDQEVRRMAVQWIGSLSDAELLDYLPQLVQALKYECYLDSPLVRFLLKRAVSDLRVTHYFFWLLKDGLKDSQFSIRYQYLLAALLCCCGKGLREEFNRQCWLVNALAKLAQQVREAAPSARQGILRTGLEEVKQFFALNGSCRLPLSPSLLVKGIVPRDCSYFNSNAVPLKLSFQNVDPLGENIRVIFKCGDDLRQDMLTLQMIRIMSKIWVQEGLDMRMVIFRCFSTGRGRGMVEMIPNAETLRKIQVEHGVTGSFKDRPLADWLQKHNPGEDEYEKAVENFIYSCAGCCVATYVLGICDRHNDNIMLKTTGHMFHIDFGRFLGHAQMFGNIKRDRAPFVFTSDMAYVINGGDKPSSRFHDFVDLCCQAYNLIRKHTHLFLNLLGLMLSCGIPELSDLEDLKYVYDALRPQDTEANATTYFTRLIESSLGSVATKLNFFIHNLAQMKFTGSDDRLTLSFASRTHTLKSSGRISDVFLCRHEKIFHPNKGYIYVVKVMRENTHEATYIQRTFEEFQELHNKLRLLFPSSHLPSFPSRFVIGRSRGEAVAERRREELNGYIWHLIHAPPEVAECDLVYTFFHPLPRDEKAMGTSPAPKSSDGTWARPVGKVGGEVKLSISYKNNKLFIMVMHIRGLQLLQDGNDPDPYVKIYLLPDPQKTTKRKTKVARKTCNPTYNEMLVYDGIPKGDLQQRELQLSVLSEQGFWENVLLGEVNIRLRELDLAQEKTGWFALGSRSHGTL
Excerpt: as §1

[33] = molecular target: T33, PKN1 (Homo sapiens, UniProt Q16512); conditions: compound concentration 10 uM, read-out: Percent Competition
T33 construct: purchased Ambit Biosciences (KINOMEscan)
Excerpt: as §1

[34] = molecular target: T34, PRKG2 (Homo sapiens, UniProt Q13237); conditions: compound concentration 10 uM, read-out: Percent Competition
T34 construct: purchased Ambit Biosciences (KINOMEscan)
Excerpt: as §1

[35] = molecular target: T35, PRKR (Homo sapiens, UniProt P19525); conditions: compound concentration 10 uM
T35 construct: purchased Ambit Biosciences (KINOMEscan)
Excerpt: as §1

[36] = molecular target: T36, RPS6KA1(Kin.Dom.1-N-terminal) (Homo sapiens, UniProt Q15418); conditions: compound concentration 10 uM, read-out: Percent Competition
T36 construct: RPS6KA1(Kin.Dom.1-N-terminal); purchased Ambit Biosciences (KINOMEscan)
Excerpt: as §1

[37] = molecular target: T37, RPS6KA5(Kin.Dom.1-N-terminal) (Homo sapiens, UniProt O75582); conditions: compound concentration 10 uM, read-out: Percent Competition
T37 construct: RPS6KA5(Kin.Dom.1-N-terminal); purchased Ambit Biosciences (KINOMEscan)
Excerpt: as §1

[38] = molecular target: T38, TIE1 (Homo sapiens, UniProt P35590); conditions: compound concentration 10 uM, read-out: Percent Competition
T38 construct: purchased Ambit Biosciences (KINOMEscan)
Excerpt: as §1

[39] = molecular target: T39, TRKB (Homo sapiens, UniProt Q16620); conditions: compound concentration 10 uM, read-out: Percent Competition
T39 construct: purchased Ambit Biosciences (KINOMEscan)
Excerpt: as §1

[40] = molecular target: T40, TRKC (Homo sapiens, UniProt Q16288); conditions: compound concentration 10 uM, read-out: Percent Competition
T40 construct: purchased Ambit Biosciences (KINOMEscan)
Excerpt: as §1

inhibition at 10 µM [1]: < 50%
inhibition at 10 µM [2]: < 50%
inhibition at 10 µM [3]: < 50%
inhibition at 10 µM [4]: < 50%
Percent Competition [5]: <50%
inhibition at 10 µM [6]: < 50%
inhibition at 10 µM [7]: < 50%
inhibition at 10 µM [8]: < 50%
inhibition at 10 µM [9]: < 50%
inhibition at 10 µM [10]: < 50%
Percent Competition [11]: <50%
inhibition at 10 µM [12]: < 50%
inhibition at 10 µM [13]: < 50%
Percent Competition [14]: <50%
inhibition at 10 µM [15]: < 50%
inhibition at 10 µM [16]: < 50%
inhibition at 10 µM [17]: < 50%
inhibition at 10 µM [18]: < 50%
inhibition at 10 µM [19]: < 50%
Percent Competition [20]: <50%
inhibition at 10 µM [21]: < 50%
inhibition at 10 µM [22]: < 50%
inhibition at 10 µM [23]: < 50%
inhibition at 10 µM [24]: < 50%
inhibition at 10 µM [25]: < 50%
inhibition at 10 µM [26]: < 50%
Percent Competition [27]: <50%
inhibition at 10 µM [28]: < 50%
inhibition at 10 µM [29]: < 50%
inhibition at 10 µM [30]: < 50%
inhibition at 10 µM [31]: < 50%
inhibition at 10 µM [32]: < 50%
inhibition at 10 µM [33]: < 50%
inhibition at 10 µM [34]: < 50%
Percent Competition [35]: <50%
inhibition at 10 µM [36]: < 50%
inhibition at 10 µM [37]: < 50%
inhibition at 10 µM [38]: < 50%
inhibition at 10 µM [39]: < 50%
inhibition at 10 µM [40]: < 50%
SMILES: Fc1ccc(-c2c(-c3ccncc3)[nH]c3nccnc23)cc1 [RO1155697-000-005]

From PMC3445516 (PLoS ONE, 2012)
